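Cultured in 96-well plates, cells were exposed to test compound for 48 hours across five concentrations. Abbreviation: GI50, concentration required for 50% inhibition of growth. TGI marks complete inhibition of growth.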
Key:
Assay in all cases: growth of human tumour cells (NCI), 48 h
XF 498 CNS = test system: XF 498 CNS
HT29 colon = test system: HT29 colon
ACHN renal = test system: ACHN renal
SK-MEL-28 melanoma = test system: SK-MEL-28 melanoma
NCI-H23 lung = test system: NCI-H23 lung
SK-OV-3 ovarian = test system: SK-OV-3 ovarian
CCRF-CEM leukemia = test system: CCRF-CEM leukemia
SNB-75 CNS = test system: SNB-75 CNS
NCI-H226 lung = test system: NCI-H226 lung
RXF-631 renal = test system: RXF-631 renal
M19-MEL melanoma = test system: M19-MEL melanoma
M14 melanoma = test system: M14 melanoma
K-562 leukemia = test system: K-562 leukemia
SF-539 CNS = test system: SF-539 CNS
RPMI-8226 leukemia = test system: RPMI-8226 leukemia
OVCAR-8 ovarian = test system: OVCAR-8 ovarian
HCC-2998 colon = test system: HCC-2998 colon
EKVX NSCLC = test system: EKVX NSCLC
DMS 273 small cell lung = test system: DMS 273 small cell lung
NCI-H460 lung = test system: NCI-H460 lung
OVCAR-4 ovarian = test system: OVCAR-4 ovarian
UACC-62 melanoma = test system: UACC-62 melanoma
DMS 114 small cell lung = test system: DMS 114 small cell lung
SN12C renal = test system: SN12C renal
IGROV1 ovarian = test system: IGROV1 ovarian
SF-268 CNS = test system: SF-268 CNS
UO-31 renal = test system: UO-31 renal
COLO 205 colon = test system: COLO 205 colon
HOP-92 NSCLC = test system: HOP-92 NSCLC
SR leukemia = test system: SR leukemia
A549 NSCLC = test system: A549 NSCLC
MOLT-4 leukemia = test system: MOLT-4 leukemia
SNB-19 CNS = test system: SNB-19 CNS
SNB-78 CNS = test system: SNB-78 CNS
OVCAR-3 ovarian = test system: OVCAR-3 ovarian
CAKI-1 renal = test system: CAKI-1 renal
KM12 colon = test system: KM12 colon
HCT-116 colon = test system: HCT-116 colon
SW-620 colon = test system: SW-620 colon
MALME-3M melanoma = test system: MALME-3M melanoma
KM20L2 colon = test system: KM20L2 colon
HOP-62 NSCLC = test system: HOP-62 NSCLC
HCT-15 colon = test system: HCT-15 colon
NCI-H522 lung = test system: NCI-H522 lung
DLD-1 colon = test system: DLD-1 colon
OVCAR-5 ovarian = test system: OVCAR-5 ovarian
LXFL 529 NSCLC = test system: LXFL 529 NSCLC
UACC-257 melanoma = test system: UACC-257 melanoma
U251 CNS = test system: U251 CNS
786-0 renal = test system: 786-0 renal
LOX IMVI melanoma = test system: LOX IMVI melanoma
HL-60(TB) leukemia = test system: HL-60(TB) leukemia
SF-295 CNS = test system: SF-295 CNS
A498 renal = test system: A498 renal
HOP-18 NSCLC = test system: HOP-18 NSCLC
RXF 393 renal = test system: RXF 393 renal
TK-10 renal = test system: TK-10 renal
SK-MEL-2 melanoma = test system: SK-MEL-2 melanoma
SK-MEL-5 melanoma = test system: SK-MEL-5 melanoma

## COc1cccc(/C=C\c2cc(OC)c(OC)c(OC)c2)c1
XF 498 CNS
  TGI: 35800 nM
HT29 colon
  TGI: 67900 nM
ACHN renal
  TGI: > 100000 nM
SK-MEL-28 melanoma
  TGI: 7150 nM
NCI-H23 lung
  TGI: 9400 nM
SK-OV-3 ovarian
  TGI: > 100000 nM
CCRF-CEM leukemia
  TGI: 22800 nM
SNB-75 CNS
  TGI: 20400 nM
NCI-H226 lung
  TGI: 83900 nM
RXF-631 renal
  TGI: > 100000 nM
M19-MEL melanoma
  TGI: > 100000 nM
M14 melanoma
  TGI: > 100000 nM
K-562 leukemia
  TGI: 43700 nM
SF-539 CNS
  TGI: > 100000 nM
RPMI-8226 leukemia
  TGI: 42300 nM
OVCAR-8 ovarian
  TGI: > 100000 nM
HCC-2998 colon
  TGI: 69500 nM
EKVX NSCLC
  TGI: > 100000 nM
DMS 273 small cell lung
  TGI: 39600 nM
NCI-H460 lung
  TGI: > 100000 nM
OVCAR-4 ovarian
  TGI: > 100000 nM
UACC-62 melanoma
  TGI: > 100000 nM
DMS 114 small cell lung
  TGI: 67300 nM
SN12C renal
  TGI: > 100000 nM
IGROV1 ovarian
  TGI: > 100000 nM
SF-268 CNS
  TGI: > 100000 nM
UO-31 renal
  TGI: 33000 nM
COLO 205 colon
  TGI: 17300 nM
HOP-92 NSCLC
  TGI: > 100000 nM
SR leukemia
  TGI: 27500 nM
A549 NSCLC
  TGI: > 100000 nM
MOLT-4 leukemia
  TGI: 18000 nM
SNB-19 CNS
  TGI: > 100000 nM
SNB-78 CNS
  TGI: 58900 nM
OVCAR-3 ovarian
  TGI: 79100 nM
CAKI-1 renal
  TGI: 56400 nM
KM12 colon
  TGI: > 100000 nM
HCT-116 colon
  TGI: > 100000 nM
SW-620 colon
  TGI: > 100000 nM
MALME-3M melanoma
  TGI: 42800 nM
KM20L2 colon
  TGI: 1560 nM
HOP-62 NSCLC
  TGI: > 100000 nM
HCT-15 colon
  TGI: > 100000 nM
NCI-H522 lung
  TGI: 1580 nM
DLD-1 colon
  TGI: > 100000 nM
OVCAR-5 ovarian
  TGI: 63600 nM
LXFL 529 NSCLC
  TGI: > 100000 nM
UACC-257 melanoma
  TGI: 47300 nM
U251 CNS
  TGI: 23000 nM
786-0 renal
  TGI: 71500 nM

## CC1=C2C(=CC(C)(CO)C2O)C(=O)C(C)(O)C12CC2 (stereo not drawn)
HT29 colon
  TGI: 44.6 nM
LOX IMVI melanoma
  TGI: 9.92 nM
ACHN renal
  TGI: 13.2 nM
SK-MEL-28 melanoma
  TGI: 13.8 nM
NCI-H23 lung
  TGI: 9.96 nM
SK-OV-3 ovarian
  TGI: 42.4 nM
CCRF-CEM leukemia
  GI50: 1.72 nM
  TGI: 68.6 nM
SNB-75 CNS
  GI50: 5.76 nM
  TGI: 16.5 nM
NCI-H226 lung
  TGI: 15 nM
RXF-631 renal
  TGI: 35.9 nM
M19-MEL melanoma
  TGI: 11.6 nM
M14 melanoma
  TGI: 10.4 nM
HL-60(TB) leukemia
  TGI: 6.97 nM
SF-295 CNS
  TGI: 3.92 nM
K-562 leukemia
  TGI: 105 nM
SF-539 CNS
  TGI: 15.2 nM
OVCAR-8 ovarian
  TGI: 12.7 nM
HCC-2998 colon
  TGI: 9.03 nM
A498 renal
  TGI: 20.4 nM
EKVX NSCLC
  TGI: 33.5 nM
DMS 273 small cell lung
  TGI: 8.92 nM
NCI-H460 lung
  TGI: 4.6 nM
OVCAR-4 ovarian
  GI50: 3.78 nM
  TGI: 13.1 nM
UACC-62 melanoma
  TGI: 7.84 nM
DMS 114 small cell lung
  TGI: 7.69 nM
SN12C renal
  TGI: 118 nM
HOP-18 NSCLC
  TGI: 33.1 nM
IGROV1 ovarian
  TGI: 106 nM
SF-268 CNS
  TGI: 15.9 nM
UO-31 renal
  GI50: 16.4 nM
  TGI: 39 nM
COLO 205 colon
  GI50: 4.54 nM
  TGI: 11.5 nM
HOP-92 NSCLC
  TGI: 14.4 nM
RXF 393 renal
  TGI: 5.69 nM
SR leukemia
  TGI: 146 nM
A549 NSCLC
  TGI: 90.2 nM
MOLT-4 leukemia
  TGI: 10.4 nM
SNB-19 CNS
  TGI: 42.2 nM
SNB-78 CNS
  TGI: 47.9 nM
OVCAR-3 ovarian
  TGI: 19 nM
TK-10 renal
  TGI: 23.3 nM
CAKI-1 renal
  TGI: 18.3 nM
KM12 colon
  TGI: 21.9 nM
HCT-116 colon
  TGI: 47.8 nM
SK-MEL-2 melanoma
  TGI: 4.22 nM
SK-MEL-5 melanoma
  TGI: 3.6 nM
SW-620 colon
  TGI: 58.5 nM
MALME-3M melanoma
  TGI: 10.5 nM
KM20L2 colon
  TGI: 13.7 nM
HOP-62 NSCLC
  TGI: 14.7 nM
HCT-15 colon
  TGI: 46.2 nM
NCI-H522 lung
  GI50: 0.88 nM
  TGI: 4.21 nM
DLD-1 colon
  TGI: 73.8 nM
OVCAR-5 ovarian
  TGI: 25.8 nM
LXFL 529 NSCLC
  TGI: 29.2 nM
UACC-257 melanoma
  TGI: 8.67 nM
U251 CNS
  TGI: 21.1 nM
786-0 renal
  TGI: 14 nM

Source: PubChem BioAssay (NCI)
